Test results: PMC11279468, “Exploring a New Generation of Pyrimidine and Pyridine Derivatives as Anti-Influenza Agents Targeting the Polymerase PA–PB1 Subunits Interaction” (Pharmaceutics, 2024)
Where two headings read alike, the source gives them in different places.

Key:
[1] = in vitro; conditions: dog
Procedure: The cytotoxicity of compounds was tested in MDCK cells using the 3-(4,5-dimethylthiazol-2-yl)-2,5-diphenyl tetrazolium bromide (MTT) method, as previously reported [32]. Briefly, MDCK cells (seeded at a density of 2 × 10^4 per well) were grown in 96-well plates for 24 h and then treated with serial dilutions of test compounds, or DMSO as a control, in DMEM supplemented with 10% FBS. After incubation at 37 °C for 48 h, 5 mg/mL of MTT (Sigma, Tokyo, Japan) in PBS was added into each well and incubated at 37 °C for a further 4 h. Successively, a solubilization solution was added to lyse the cells and incubated overnight at 37 °C. Finally, optical density was read at the wavelength of 570 nm on a microtiter plate reader (MultiSkan FC, ThermoFisher Scientific).

[2] = system: Influenza virus strain A/PR/8/34 (H1N1); assay: microbe, parasite or virus in culture; conditions: unidentified influenza virus, MDCK, read-out: EC50 (PRA)
[3] = target: T1, PA–PB1 interaction (6His-PA(239–716) / GST-PB1(1–25)) (Influenza A virus, UniProt P03433); assay: biochemical; type: binding
[4] = system: Influenza virus strain A/PR/8/34 (H1N1); conditions: plaque reduction assay in MDCK cells; cited from earlier work
[5] = system: MDCK cells; conditions: cited from earlier work
[6] = target: T1, PA–PB1 interaction (6His-PA(239–716) / GST-PB1(1–25))
[7] = system: HEK 293T cells; conditions: cited from earlier work
[8] = read-out: IC50 (ELISA PA–PB1); ELISA PA–PB1 interaction; cited from earlier work

Row | Structure (SMILES) | CC50 at 48 h [1] [µM] | EC50 [2] [µM] | IC50 [3] [µM] | melting point [°C] | also measured
1 | Cc1cccc(NC(=O)CSc2nc(-c3ccc(Cl)cc3)cc(-c3cccc4ccccc34)n2)c1 [Compound 2g, 2-{[4-(4-Chlorophenyl)-6-(naphthalen-1-yl)pyrimidin-2-yl]thio}-N-(m-tolyl)acetamide] | > 250 | > 100 | > 200 | 103 to 107 | –
2 | COC(=O)[C@H](Cc1ccc(O)cc1)NC(=O)CSc1nc(-c2ccccc2)cc(-c2ccc(F)cc2)n1 [Compound 3c, Methyl (2-((4-(4-fluorophenyl)-6-phenylpyrimidin-2-yl)thio)acetyl)-L-tyrosinate] | > 250 | > 100 | 172 ± 7 | 167 to 168 | –
3 | CCC(C)C(NC(=O)CSc1nc(-c2ccccc2)cc(-c2ccc(C)cc2)c1C#N)C(=O)OC (centres unmarked) [Compound 1b] | – | – | – | – | EC50 [4]: 39 ± 2 µM; CC50 [5]: > 250 µM; IC50 ([6]; read-out: IC50 (ELISA PA–PB1); ELISA-based PA–PB1 interaction assay; cited from earlier work): 36 ± 3 µM; CC50 [7]: 229 µM
4 | COC(=O)[C@@H](NC(=O)CSc1cc(-c2ccccc2)cc(-c2ccccc2)n1)C(C)C [Compound 3i, Methyl (2-((4,6-diphenylpyridin-2-yl)thio)acetyl)-L-valinate] | – | – | > 200 | 63 to 64 | –
5 | Cc1cccc(NC(=O)CSc2nc(-c3ccc(F)cc3)cc(-c3ccc(F)cc3)n2)c1 [Compound 2b, 2-{[4,6-Bis(4-fluorophenyl)pyrimidin-2-yl]thio}-N-(m-tolyl)acetamide] | > 250 | 62.5 ± 4.3 | 137 ± 35 | 210 to 211 | –
6 | COC(=O)[C@@H](NC(=O)CSc1nc(-c2ccccc2)cc(-c2ccc(F)cc2)n1)C(C)C [Compound 3a, Methyl (2-((4-(4-fluorophenyl)-6-phenylpyrimidin-2-yl)thio)acetyl)-L-valinate] | 234 ± 19 | > 100 | > 200 | 152 to 153 | –
7 | Cc1cccc(NC(=O)CSc2nc(-c3ccc(F)cc3)cc(-c3ccc(Cl)cc3)n2)c1 [Compound 2e, 2-{[4-(4-Chlorophenyl)-6-(4-fluorophenyl)pyrimidin-2-yl]thio}-N-(m-tolyl)acetamide] | 206 ± 12 | 29.5 ± 0.7 | 125 ± 37 | 213 to 217 | –
8 | COC(=O)[C@H](Cc1c[nH]cn1)NC(=O)CSc1nc(-c2ccc(F)cc2)cc(-c2ccc(F)cc2)n1 [Compound 3h, Methyl (2-((4,6-bis(4-fluorophenyl)pyrimidin-2-yl)thio)acetyl)-L-histidinate] | > 250 | > 100 | 108 ± 14 | 107 to 108 | –
9 | Cc1cccc(NC(=O)CSc2cc(-c3ccccc3)cc(-c3ccccc3)n2)c1 [Compound 1e] | – | – | – | – | EC50 [4]: 7.3 ± 1.3 µM; CC50 [5]: > 250 µM; IC50 [6, 8]: 52.6 ± 9 µM
10 | COC(=O)[C@H](Cc1ccc(O)cc1)NC(=O)CSc1nc(-c2ccc(F)cc2)cc(-c2ccc(F)cc2)n1 [Compound 3g, Methyl (2-((4,6-bis(4-fluorophenyl)pyrimidin-2-yl)thio)acetyl)-L-tyrosinate] | > 250 | > 100 | > 200 | – | –
11 | Cc1cccc(NC(=O)CSc2nc(-c3ccc(Cl)cc3)cc(-c3ccc(Cl)cc3)n2)c1 [Compound 2a, 2-{[4,6-Bis(4-chlorophenyl)pyrimidin-2-yl]thio}-N-(m-tolyl)acetamide] | > 250 | > 100 | 70.8 ± 19.5 | 225 to 227 | –
12 | Cc1ccc(-c2cc(-c3ccccc3)nc(SCC(=O)Nc3cccc(C)c3)c2C#N)cc1 [Compound 1a] | – | – | – | – | IC50 ([6]; ELISA PA–PB1 interaction; read-out: IC50 (ELISA PA–PB1); cited from earlier work): 80 µM
13 | CC[C@H](C)[C@H](NC(=O)CSc1cc(-c2ccccc2)cc(-c2ccc(F)cc2)n1)C(=O)OC [Compound 3l, Methyl (2-((6-(4-fluorophenyl)-4-phenylpyridin-2-yl)thio)acetyl)-L-isoleucinate] | – | – | > 200 | 76 to 77 | –
14 | Cc1cccc(NC(=O)CSc2nc(-c3ccc(F)cc3)cc(-c3cccc4ccccc34)n2)c1 [Compound 2h, 2-{[4-(4-Fluorophenyl)-6-(1-naphthyl)pyrimidin-2-yl]thio}-N-(3-methylphenyl)acetamide] | > 250 | 14.8 ± 1.6 | > 200 | 145 to 147 | activity as PA–PB1 disruptors (in words) [3]: lack of activity as PA–PB1 disruptors
15 | COC(=O)[C@H](Cc1c[nH]cn1)NC(=O)CSc1nc(-c2ccccc2)cc(-c2ccc(F)cc2)n1 [Compound 3d, Methyl (2-((4-(4-fluorophenyl)-6-phenylpyrimidin-2-yl)thio)acetyl)-L-histidinate] | 98 ± 11.3 | > 100 | 70 ± 2.8 | 77 to 78 | –
16 | CC[C@H](C)[C@H](NC(=O)CSc1nc(-c2ccccc2)cc(-c2ccc(F)cc2)n1)C(=O)OC [Compound 3b, Methyl (2-((4-(4-fluorophenyl)-6-phenylpyrimidin-2-yl)thio)acetyl)-L-isoleucinate] | > 250 | > 100 | > 200 | 94 to 95 | –
17 | Cc1cccc(NC(=O)CSc2cc(-c3ccc(Cl)cc3)cc(Sc3ccccc3)n2)c1 [Compound 2n, 2-{[4-(4-chlorophenyl)-6-(phenylthio)pyridin-2-yl]thio}-N-(m-tolyl)acetamide] | > 250 | 62.9 ± 13.2 | 87 ± 15.7 | 93 to 95 | –
18 | Cc1cccc(NC(=O)CSc2nc(-c3ccccc3)cc(-c3ccccc3)n2)c1 [Compound 1d] | – | – | – | – | EC50 [4]: 3.5 ± 0.5 µM; CC50 [5]: 10.1 ± 1.7 µM; IC50 [6, 8]: 165 ± 18 µM; CC50 [7]: 22.3 µM
19 | COC(=O)[C@H](Cc1ccc(O)cc1)NC(=O)CSc1cc(-c2ccccc2)cc(-c2ccc(F)cc2)n1 [Compound 3m, Methyl (2-((6-(4-fluorophenyl)-4-phenylpyridin-2-yl)thio)acetyl)-L-tyrosinate] | – | – | > 200 | 151 to 152 | –
20 | COC(=O)[C@H](Cc1c[nH]cn1)NC(=O)CSc1cc(-c2ccccc2)cc(-c2ccc(F)cc2)n1 [Compound 3n, Methyl (2-((6-(4-fluorophenyl)-4-phenylpyridin-2-yl)thio)acetyl)-L-histidinate] | – | – | > 200 | 155 to 156 | –
21 | Cc1cccc(NC(=O)CSc2nc(Sc3ccccc3)cc(-c3ccccc3)n2)c1 [Compound 2i, 2-{[4-Phenyl-6-(phenylthio)pyrimidin-2-yl]thio}-N-(m-tolyl)acetamide] | 73.3 ± 9.1 | 4.6 ± 0.3 | 28.8 ± 1.5 | 127 to 128 | –
22 | Cc1cccc(NC(=O)CSc2cc(-c3ccccc3)cc(Sc3ccccc3)n2)c1 [Compound 2m, 2-{[4-Phenyl-6-(phenylthio)pyridin-2-yl]thio}-N-(m-tolyl)acetamide] | > 250 | 32.3 ± 3.2 | 141 ± 44 | 122 to 123 | –
23 | CC[C@H](C)[C@H](NC(=O)CSc1nc(-c2ccc(F)cc2)cc(-c2ccc(F)cc2)n1)C(=O)OC [Compound 3f, Methyl (2-((4,6-bis(4-fluorophenyl)pyrimidin-2-yl)thio)acetyl)-L-isoleucinate] | > 250 | > 100 | > 200 | 150 to 151 | –
24 | Cc1cccc(NC(=O)CSc2nc(-c3ccc(C(F)(F)F)cc3)cc(-c3ccc(C(F)(F)F)cc3)n2)c1 [Compound 1c] | – | – | – | – | EC50 [4]: 26.5 ± 4.3 µM; CC50 [5]: > 250 µM; IC50 [6, 8]: > 200 µM; CC50 [7]: > 250 µM
25 | CC[C@H](C)[C@H](NC(=O)CSc1cc(-c2ccccc2)cc(-c2ccccc2)n1)C(=O)OC [Compound 3j, Methyl (2-((4,6-diphenylpyridin-2-yl)thio)acetyl)-L-isoleucinate] | – | – | > 200 | 70 to 71 | –
26 | Cc1cccc(NC(=O)CSc2nc(-c3ccccc3)cc(-c3ccc(Cl)cc3)n2)c1 [Compound 2c, 2-{[4-(4-Chlorophenyl)-6-phenylpyrimidin-2-yl]thio}-N-(m-tolyl)acetamide] | > 250 | 45.5 ± 2.1 | 86 ± 5.3 | 204 to 206 | –
27 | COC(=O)[C@@H](NC(=O)CSc1nc(-c2ccc(F)cc2)cc(-c2ccc(F)cc2)n1)C(C)C [Compound 3e, Methyl (2-((4,6-bis(4-fluorophenyl)pyrimidin-2-yl)thio)acetyl)-L-valinate] | > 250 | > 100 | > 200 | 174 to 175 | –
28 | COC(=O)[C@H](Cc1ccc(O)cc1)NC(=O)CSc1cc(-c2ccccc2)cc(-c2ccccc2)n1 [Compound 3k, Methyl (2-((4,6-diphenylpyridin-2-yl)thio)acetyl)-L-tyrosinate] | – | – | > 200 | 111 to 112 | –
29 | Cc1cccc(NC(=O)CSc2nc(-c3ccccc3)cc(-c3cccc4ccccc34)n2)c1 [Compound 2f, 2-{[4-(Naphthalen-1-yl)-6-phenylpyrimidin-2-yl)thio)-N-(m-tolyl)acetamide] | > 250 | 21.1 ± 8 | > 200 | 147 to 148 | activity as PA–PB1 disruptors (in words) [3]: lack of activity as PA–PB1 disruptors
